Key:
brain-resident Tregs = test: brain-resident Treg levels in mice after oral gavage (flow cytometry, i.v. CD45 labeling); type: in vivo, mouse; conditions: SPF mice, oral gavage 50 mg/kg/day, 14 days, vs vehicle; brain tissue; FIG. 66 top row
Protocol: (§1) Butyrate-MCY (dissolved in water) was delivered by oral gavage at a rate of 50 mg/kg body weight per day in a volume of 100 μL for two weeks.
For isolation of brain leukocyte populations, mice were euthanized with CO2 and perfused through the left ventricle with 20 mL PBS. The whole brain was removed and placed in 2.5 mL digestion buffer (PBS, 5% FCS, 1 mM HEPES) before being finely chopped. Collagenase D (Roche, 400 U) was added to the mixture, which was then incubated at 37° C. for 30 min before adding 50 μL 0.5 M EDTA, followed by a 5-min incubation. […]
(§2) All antibodies above were used at 1:200 dilutions, except FoxP3 were used at 1:100 dilutions. Stained cells were analyzed on a 5 laser, 18 color custom-configuration BD LSRFortessa (BD). Data were collected using BD FACSDiva version 9.0 and analyzed using FlowJo (version 10.7.1, Tree Star).
For functional evaluation, the previously unreported MCY conjugates of butyrate were prioritized, given that their microbiota-dependent production is conserved in humans and considering that the corresponding parent metabolite, butyrate, serves important roles in immune homeostasis. […] SPF mice were supplemented via oral gavage with butyrate-MCY (50 mg/kg/day, 100 μL/day, 14 days), which was identified in the brain and serum metabolomes and the levels of brain-resident Tregs was measured. […]

gut Tregs (colon tissue) = test: colon (gut) Treg levels in mice after oral gavage (flow cytometry); type: in vivo, mouse; conditions: SPF mice, oral gavage 50 mg/kg/day, 14 days, vs vehicle, FIG. 66 bottom row
Protocol: as §1
Mouse colons were removed, cleaned of attached fat tissues, and washed in ice-cold PBS (Sigma-Aldrich). They were then opened longitudinally and washed again in ice-cold PBS. Dissociation of epithelial cells was performed by shaking at 37° C. in HBSS (Sigma-Aldrich) containing 10 mM HEPES, 10 mM EDTA (Thermo Fisher Scientific) and 2 mM dithiothreitol (DTT) two times for 15 min each. After each step, samples were vortexed, and the supernatant containing the epithelial fraction was removed. […]
as §2
For functional evaluation, the previously unreported MCY conjugates of butyrate were prioritized, given that their microbiota-dependent production is conserved in humans and considering that the corresponding parent metabolite, butyrate, serves important roles in immune homeostasis. […] FIG. 66 (top row) provides representative flow cytometry plots of Tregs and quantification of Tregs as percentage of all CD4+ T cells in brain tissue from vehicle or butyrate-MCY treated mice. […]

`CCCC(=O)NCCSC` [butyrate-MCY] was tested, and the “percentage of brain-resident Tregs amongst CD4+ T cells” value (brain-resident Tregs) was “significantly decreased” and the “percentage of gut Tregs amongst CD4+ T cells” value (gut Tregs (colon tissue)) was “significantly decreased”.
